Test results as given in the supplement of paper PMC10307832.

Tests used:
Assay in all cases: relative viability (nuclei count vs DMSO), 5 days (fraction); higher = more cells survive
Alisertib + Phenformin = compound: COc1cc(Nc2ncc3c(n2)-c2ccc(Cl)cc2C(c2c(F)cccc2OC)=NC3)ccc1C(=O)O [Alisertib] + N=C(N)NC(=N)NCCc1ccccc1 [Phenformin] (partner 250 µM)
How it was run: (§1)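 Medians of duplicate plates are given as relative viability. That measure is the nuclei count in treated wells divided by the count in vehicle wells. Counts were taken on 4× images of lung cancer cell lines in 1536-well plates, 5 days after pin-tool dosing the day after seeding with one drug alone or a fixed anchor-drug dose plus five library-drug doses (not always all listed) in √10 steps.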

Alisertib + Pemetrexed = compound: COc1cc(Nc2ncc3c(n2)-c2ccc(Cl)cc2C(c2c(F)cccc2OC)=NC3)ccc1C(=O)O [Alisertib] + Nc1nc2[nH]cc(CCc3ccc(C(=O)N[C@@H](CCC(=O)O)C(=O)O)cc3)c2c(=O)[nH]1 [Pemetrexed] (partner 0.2 µM)
How it was run: as §1

Alisertib + Dasatinib = compound: COc1cc(Nc2ncc3c(n2)-c2ccc(Cl)cc2C(c2c(F)cccc2OC)=NC3)ccc1C(=O)O [Alisertib] + Cc1nc(Nc2ncc(C(=O)Nc3c(C)cccc3Cl)s2)cc(N2CCN(CCO)CC2)n1 [Dasatinib] (partner 0.075 µM)
How it was run: as §1

Alisertib + Tozasertib = compound: COc1cc(Nc2ncc3c(n2)-c2ccc(Cl)cc2C(c2c(F)cccc2OC)=NC3)ccc1C(=O)O [Alisertib] + Cc1cc(Nc2cc(N3CCN(C)CC3)nc(Sc3ccc(NC(=O)C4CC4)cc3)n2)n[nH]1 [Tozasertib] (partner 0.1 µM)
How it was run: as §1

Alisertib + Vorinostat = compound: COc1cc(Nc2ncc3c(n2)-c2ccc(Cl)cc2C(c2c(F)cccc2OC)=NC3)ccc1C(=O)O [Alisertib] + O=C(CCCCCCC(=O)Nc1ccccc1)NO [Vorinostat] (partner 1 µM)
How it was run: as §1

Alisertib + Olaparib = compound: COc1cc(Nc2ncc3c(n2)-c2ccc(Cl)cc2C(c2c(F)cccc2OC)=NC3)ccc1C(=O)O [Alisertib] + O=C(c1cc(Cc2n[nH]c(=O)c3ccccc23)ccc1F)N1CCN(C(=O)C2CC2)CC1 [Olaparib] (partner 8 µM)
How it was run: as §1

Alisertib + Foretinib = compound: COc1cc(Nc2ncc3c(n2)-c2ccc(Cl)cc2C(c2c(F)cccc2OC)=NC3)ccc1C(=O)O [Alisertib] + COc1cc2c(Oc3ccc(NC(=O)C4(C(=O)Nc5ccc(F)cc5)CC4)cc3F)ccnc2cc1OCCCN1CCOCC1 [Foretinib] (partner 0.25 µM)
How it was run: as §1

Alisertib + Palbociclib = compound: COc1cc(Nc2ncc3c(n2)-c2ccc(Cl)cc2C(c2c(F)cccc2OC)=NC3)ccc1C(=O)O [Alisertib] + CC(=O)c1c(C)c2cnc(Nc3ccc(N4CCNCC4)cn3)nc2n(C2CCCC2)c1=O [Palbociclib] (partner 0.5 µM)
How it was run: as §1

Alisertib + OSI-027 = compound: COc1cc(Nc2ncc3c(n2)-c2ccc(Cl)cc2C(c2c(F)cccc2OC)=NC3)ccc1C(=O)O [Alisertib] + COc1cccc2cc(-c3nc([C@H]4CC[C@H](C(=O)O)CC4)n4ncnc(N)c34)[nH]c12 [OSI-027] (partner 0.5 µM)
How it was run: as §1

Alisertib + Luminespib = compound: COc1cc(Nc2ncc3c(n2)-c2ccc(Cl)cc2C(c2c(F)cccc2OC)=NC3)ccc1C(=O)O [Alisertib] + CCNC(=O)c1noc(-c2cc(C(C)C)c(O)cc2O)c1-c1ccc(CN2CCOCC2)cc1 [Luminespib] (partner 0.01 µM)
How it was run: as §1

Alisertib + AZD7762 = compound: COc1cc(Nc2ncc3c(n2)-c2ccc(Cl)cc2C(c2c(F)cccc2OC)=NC3)ccc1C(=O)O [Alisertib] + NC(=O)Nc1cc(-c2cccc(F)c2)sc1C(=O)N[C@H]1CCCNC1 [AZD7762] (partner 0.2 µM)
How it was run: as §1

Alisertib + Trametinib = compound: COc1cc(Nc2ncc3c(n2)-c2ccc(Cl)cc2C(c2c(F)cccc2OC)=NC3)ccc1C(=O)O [Alisertib] + CC(=O)Nc1cccc(-n2c(=O)n(C3CC3)c(=O)c3c(Nc4ccc(I)cc4F)n(C)c(=O)c(C)c32)c1 [Trametinib] (partner 0.02 µM)
How it was run: as §1

Alisertib + Decitabine = compound: COc1cc(Nc2ncc3c(n2)-c2ccc(Cl)cc2C(c2c(F)cccc2OC)=NC3)ccc1C(=O)O [Alisertib] + Nc1ncn([C@H]2C[C@H](O)[C@@H](CO)O2)c(=O)n1 [Decitabine] (partner 2 µM)
How it was run: as §1

Alisertib = compound: COc1cc(Nc2ncc3c(n2)-c2ccc(Cl)cc2C(c2c(F)cccc2OC)=NC3)ccc1C(=O)O [Alisertib]
How it was run: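 Following overnight incubation at 37 °C, lung cancer cell lines in 1536-well plates were pinned with five library-drug doses (not always all listed) in √10 steps on vehicle-anchored plates. The cells then spent 5 days without medium change before a combined fix, permeabilisation and Hoechst stain, 4× imaging and MetaXpress nuclear counts. Viability is the treated-to-vehicle ratio of nuclei, taken as the median across plates. Only plates with control CV below 25% and at least one doubling passed.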

SW 900
relative viability (Alisertib + Phenformin; first compound 0.005 µM): 0.434
relative viability (Alisertib + Phenformin; first compound 0.01581 µM): 0.589
relative viability (Alisertib + Phenformin; first compound 0.05 µM): 0.442
relative viability (Alisertib + Phenformin; first compound 0.1581 µM): 0.18
relative viability (Alisertib + Phenformin; first compound 0.5 µM): 0.141
relative viability (Alisertib + Pemetrexed; first compound 0.005 µM): 0.445
relative viability (Alisertib + Pemetrexed; first compound 0.01581 µM): 0.459
relative viability (Alisertib + Pemetrexed; first compound 0.05 µM): 0.438
relative viability (Alisertib + Pemetrexed; first compound 0.1581 µM): 0.178
relative viability (Alisertib + Pemetrexed; first compound 0.5 µM): 0.194
relative viability (Alisertib + Dasatinib; first compound 0.005 µM): 0.494
relative viability (Alisertib + Dasatinib; first compound 0.01581 µM): 0.435
relative viability (Alisertib + Dasatinib; first compound 0.05 µM): 0.404
relative viability (Alisertib + Dasatinib; first compound 0.1581 µM): 0.171
relative viability (Alisertib + Dasatinib; first compound 0.5 µM): 0.172
relative viability (Alisertib + Tozasertib; first compound 0.005 µM): 0.557
relative viability (Alisertib + Tozasertib; first compound 0.01581 µM): 0.54
relative viability (Alisertib + Tozasertib; first compound 0.05 µM): 0.375
relative viability (Alisertib + Tozasertib; first compound 0.1581 µM): 0.241
relative viability (Alisertib + Tozasertib; first compound 0.5 µM): 0.191
relative viability (Alisertib + Vorinostat; first compound 0.005 µM): 0.351
relative viability (Alisertib + Vorinostat; first compound 0.01581 µM): 0.369
relative viability (Alisertib + Vorinostat; first compound 0.05 µM): 0.476
relative viability (Alisertib + Vorinostat; first compound 0.1581 µM): 0.221
relative viability (Alisertib + Vorinostat; first compound 0.5 µM): 0.223
relative viability (Alisertib + Olaparib; first compound 0.005 µM): 0.897
relative viability (Alisertib + Olaparib; first compound 0.01581 µM): 0.648
relative viability (Alisertib + Olaparib; first compound 0.05 µM): 0.306
relative viability (Alisertib + Olaparib; first compound 0.1581 µM): 0.29
relative viability (Alisertib + Olaparib; first compound 0.5 µM): 0.298
relative viability (Alisertib + Foretinib; first compound 0.005 µM): 0.68
relative viability (Alisertib + Foretinib; first compound 0.01581 µM): 0.832
relative viability (Alisertib + Foretinib; first compound 0.05 µM): 0.598
relative viability (Alisertib + Foretinib; first compound 0.1581 µM): 0.194
relative viability (Alisertib + Foretinib; first compound 0.5 µM): 0.186
relative viability (Alisertib + Palbociclib; first compound 0.005 µM): 0.461
relative viability (Alisertib + Palbociclib; first compound 0.01581 µM): 0.475
relative viability (Alisertib + Palbociclib; first compound 0.05 µM): 0.303
relative viability (Alisertib + Palbociclib; first compound 0.1581 µM): 0.245
relative viability (Alisertib + Palbociclib; first compound 0.5 µM): 0.227
relative viability (Alisertib + OSI-027; first compound 0.005 µM): 0.532
relative viability (Alisertib + OSI-027; first compound 0.01581 µM): 0.399
relative viability (Alisertib + OSI-027; first compound 0.05 µM): 0.543
relative viability (Alisertib + OSI-027; first compound 0.1581 µM): 0.167
relative viability (Alisertib + OSI-027; first compound 0.5 µM): 0.111
relative viability (Alisertib + Luminespib; first compound 0.005 µM): 0.16
relative viability (Alisertib + Luminespib; first compound 0.01581 µM): 0.167
relative viability (Alisertib + Luminespib; first compound 0.05 µM): 0.182
relative viability (Alisertib + Luminespib; first compound 0.1581 µM): 0.188
relative viability (Alisertib + Luminespib; first compound 0.5 µM): 0.176
relative viability (Alisertib + AZD7762; first compound 0.005 µM): 0.568
relative viability (Alisertib + AZD7762; first compound 0.01581 µM): 0.617
relative viability (Alisertib + AZD7762; first compound 0.05 µM): 0.637
relative viability (Alisertib + AZD7762; first compound 0.1581 µM): 0.232
relative viability (Alisertib + AZD7762; first compound 0.5 µM): 0.17
relative viability (Alisertib + Trametinib; first compound 0.005 µM): 0.917
relative viability (Alisertib + Trametinib; first compound 0.01581 µM): 0.827
relative viability (Alisertib + Trametinib; first compound 0.05 µM): 0.374
relative viability (Alisertib + Trametinib; first compound 0.1581 µM): 0.217
relative viability (Alisertib + Trametinib; first compound 0.5 µM): 0.144
relative viability (Alisertib + Decitabine; first compound 0.005 µM): 0.419
relative viability (Alisertib + Decitabine; first compound 0.01581 µM): 0.377
relative viability (Alisertib + Decitabine; first compound 0.05 µM): 0.296
relative viability (Alisertib + Decitabine; first compound 0.1581 µM): 0.213
relative viability (Alisertib + Decitabine; first compound 0.5 µM): 0.255
relative viability (Alisertib; 0.005 µM): 0.635
relative viability (Alisertib; 0.01581 µM): 0.81
relative viability (Alisertib; 0.05 µM): 0.506
relative viability (Alisertib; 0.1581 µM): 0.264
relative viability (Alisertib; 0.5 µM): 0.24
